molecular target: T1, HIV protease (Human immunodeficiency virus type 1 group M subtype B, UniProt P04585); experiment: Enzymatic Assay for Determining the Inhibition Constant (Ki) of Synthetic Compounds Targeting the HIV Protease (fluorometric FRET assay); format: biochemical; conditions: not given
T1 construct: A third viral enzyme known as protease then cleaves the polyproteins
From the text: Enzymatic Assay for Determining the Inhibition Constant (Ki) of Synthetic Compounds Targeting the HIV Protease
This is a fluorometric assay based on the cleavage by protease of a substrate carrying a donor group (EDANS) and an acceptor group (DABCYL) on each side of the cleavage site, interacting together through fluorescence resonance energy transfer (FRET) as described by Matayoshi et al. (Science 247:[…], 1990).
After calculation of Vo and Vi, the inhibition constant (Ki) of the compound is determined using the equation of Henderson: [formula]
where Vo=the enzyme's initial velocity
Vi=the enzyme velocity in the presence of the inhibitory compound,
[I]=inhlibitor concentration, [S]=substrate concentration,
Km=Michaelis-Menten constant and Kiapp=apparent Ki
Graphs are traced and the Ki determined using GraphPad Prism software v. 3.0.

Compound	Ki [nM]
Cc1ccc(S(=O)(=O)N[C@H](C(=O)NCCCC[C@@H](C(=O)O)N(CC(C)C)S(=O)(=O)c2ccc(C)cc2)c2ccccc2)cc1 [Example 27, Nα-Isobutyl-Nα-(4-methylbenzenesulfonyl)-Nε-[N′α-(4-methylbenzenesulfonyl)-L-phenylglycyl]-L-lysine]	11
CC(=O)Nc1ccc(S(=O)(=O)N[C@@H](Cc2ccccc2)C(=O)NCCCC[C@@H](C(=O)O)N(CC(C)C)S(=O)(=O)c2ccc([N+](=O)[O-])cc2)cc1 [Example 28, Nα-Isobutyl-Nα-(4-nitrobenzenesulfonyl)-Nε-[N′α-(4-acetamidobenzenesulfonyl)-L-phenylalanyl]-L-lysine]	9.3
CC(C)CN([C@@H](CCCCNC(=O)[C@H](Cc1ccccc1)NS(=O)(=O)c1cccs1)C(=O)O)S(=O)(=O)c1ccc([N+](=O)[O-])cc1 [Example 29, Nα-Isobutyl-Nα-(4-nitrobenzenesulfonyl)-Nε-[N′α-(2-thiophenesulfonyl)-L-phenylalanyl]-L-lysine]	11
CC(=O)N[C@@H](Cc1ccccc1)C(=O)NCCCC[C@@H](C(=O)O)N(CC(C)C)S(=O)(=O)c1ccc(C)cc1 [Example 30, Nα-Isobutyl-Nα-(4-methylbenzenesulfonyl)-Nε-(N′α-acetyl-L-phenylalanyl)-L-lysine]	0.483
Cc1ccc(S(=O)(=O)N(CC(C)C)[C@@H](CCCCNC(=O)[C@H](Cc2ccccc2)NC(=O)OCc2ccccc2)C(=O)O)cc1 [Example 31, Nα-Isobutyl-Nα-(4-methylbenzenesulfonyl)-Nε-(N′α-benzyloxycarbonyl-L-phenylalanyl)-L-lysine]	2.3
Cc1ccc(S(=O)(=O)N[C@@H](CO)C(=O)NCCCC[C@@H](C(=O)O)N(CC(C)C)S(=O)(=O)c2ccc(C)cc2)cc1 [Example 32, Nα-Isobutyl-Nα-(4-methylbenzenesulfonyl)-Nε-[N′α-(4-methylbenzenesulfonyl)-L-seryl]-L-lysine]	93
Cc1ccc(S(=O)(=O)N[C@@H](CC2CCCCC2)C(=O)NCCCC[C@@H](C(=O)O)N(CC(C)C)S(=O)(=O)c2ccc(C)cc2)cc1 [Example 33, Nα-Isobutyl-Nα-(4-methylbenzenesulfonyl)-Nε-[N′α-(4-methylbenzenesulfonyl)-L-cyclohexylalanyl]-L-lysine]	3.2
Cc1ccc(S(=O)(=O)N[C@@H](CCC(N)=O)C(=O)NCCCC[C@@H](C(=O)O)N(CC(C)C)S(=O)(=O)c2ccc(C)cc2)cc1 [Example 34, Nα-Isobutyl-Nα-(4-methylbenzenesulfonyl)-Nε-[N′α-(4-methylbenzenesulfonyl)-L-glutaminyl]-L-lysine]	95
Cc1ccc(S(=O)(=O)N[C@@H](Cc2cccs2)C(=O)NCCCC[C@@H](C(=O)O)N(CC(C)C)S(=O)(=O)c2ccc(C)cc2)cc1 [Example 35, Nα-Isobutyl-Nα-(4-methylbenzenesulfonyl)-Nε-[N′α-(4-methylbenzenesulfonyl)-L-2-thiophenylalanyl]-L-lysine]	21
Cc1ccc(S(=O)(=O)N(CC(C)C)[C@@H](CCCCNC(=O)[C@H](CC2CCCCC2)NC(=O)OCC2c3ccccc3-c3ccccc32)C(=O)O)cc1 [Example 37, Nα-Isobutyl-Nα-(4-methylbenzenesulfonyl)-Nε-[N′α-(9-fluorenylmethoxycarbonyl)-L-cyclohexylalanyl]-L-lysine]	28
Cc1ccc(S(=O)(=O)N[C@@H](CCC(=O)O)C(=O)NCCCC[C@@H](C(=O)O)N(CC(C)C)S(=O)(=O)c2ccc(C)cc2)cc1 [Example 38, Nα-Isobutyl-Nα-(4-methylbenzenesulfonyl)-Nε-[N′α-(4-methylbenzenesulfonyl)-L-glutamyl]-L-lysine]	220
Cc1ccc(S(=O)(=O)N[C@@H](CCCCN)C(=O)NCCCC[C@@H](C(=O)O)N(CC(C)C)S(=O)(=O)c2ccc(C)cc2)cc1 [Example 39, Nα-Isobutyl-Nα-(4-methylbenzenesulfonyl)-Nε-[N′α-(4-methylbenzenesulfonyl)-L-lysyl]-L-lysine]	> 300
Cc1ccc(S(=O)(=O)N[C@@H](COCc2ccccc2)C(=O)NCCCC[C@@H](C(=O)O)N(CC(C)C)S(=O)(=O)c2ccc(C)cc2)cc1 [Example 40, Nα-Isobutyl-Nα-(4-methylbenzenesulfonyl)-Nε-[N′α-(4-methylbenzenesulfonyl)-O-benzyl-L-seryl]-L-lysine]	8
Cc1ccc(S(=O)(=O)N[C@@H](CC(=O)O)C(=O)NCCCC[C@@H](C(=O)O)N(CC(C)C)S(=O)(=O)c2ccc(C)cc2)cc1 [Example 41, Nα-Isobutyl-Nα-(4-methylbenzenesulfonyl)-Nε-[N′α-(4-methylbenzenesulfonyl)-L-aspartyl]-L-lysine]	172
Cc1ccc(S(=O)(=O)N[C@@H](Cc2cc3ccccc3s2)C(=O)NCCCC[C@@H](C(=O)O)N(CC(C)C)S(=O)(=O)c2ccc(C)cc2)cc1 [Example 42, Nα-Isobutyl-Nα-(4-methylbenzenesulfonyl)-Nε-[N′α-(4-methylbenzenesulfonyl)-L-3-(2-thianaphthyl)-alanyl]-L-lysine]	256
Cc1ccc(S(=O)(=O)N[C@@H](Cc2c[nH]c3ccccc23)C(=O)NCCCC[C@@H](C(=O)O)N(CC(C)C)S(=O)(=O)c2ccc(N)cc2)cc1 [Example 43, Nα-(4-Aminobenzenesulfonyl)-Nα-isobutyl-Nε-[N′α-(4-methylbenzenesulfonyl)-L-tryptophanyl]-L-lysine]	0.56
CC(C)CN([C@@H](CCCCNC(=O)[C@H](Cc1ccccc1)NS(=O)(=O)c1ccccc1)C(=O)O)S(=O)(=O)c1ccc(N)cc1 [Example 44, Nα-(4-Aminobenzenesulfonyl)-Nα-isobutyl-Nε-(N′α-benzenesulfonyl-L-phenylalanyl)-L-lysine]	3.6
Cc1ccc(S(=O)(=O)NC(Cc2c[nH]c3ccccc23)C(=O)NCCCCC(C(=O)OCC(O)CO)N(CC(C)C)S(=O)(=O)c2ccc(C)cc2)cc1 [Example 45, Nα-Isobutyl-Nα-(4-methylbenzenesulfonyl)-Nε-[N′α-(4-methylbenzenesulfonyl)-L-tryptophanyl]-L-lysine 2,3-Dihydroxypropyl Ester]	> 300
CC(C)CN([C@@H](CCCCNC(=O)[C@H](Cc1ccccc1)NS(=O)(=O)c1cccs1)C(=O)O)S(=O)(=O)c1ccc(N)cc1 [Example 46, Nα-(4-Aminobenzenesulfonyl)-Nα-isobutyl-Nε-[N′α-(2-thiophenesulfonyl)-L-phenylalanyl]-L-lysine]	0.477
Cc1ccc(S(=O)(=O)N[C@@H](CC(N)=O)C(=O)NCCCC[C@@H](C(=O)O)N(CC(C)C)S(=O)(=O)c2ccc(N)cc2)cc1 [Example 47, Nα-(4-Aminobenzenesulfonyl)-Nα-isobutyl-Nε-[N′α-(4-methylbenzenesulfonyl)-L-asparagyl]-L-lysine]	54
Cc1ccc(S(=O)(=O)N(CC(C)C)[C@@H](CCCCNC(=O)[C@H](CC(N)=O)NC(=O)OCc2ccccc2)C(=O)O)cc1 [Example 48, Nα-Isobutyl-Nα-(4-Methylbenzenesulfonyl)-Nε-(N′α-benzyloxycarbonyl-L-asparagyl)-L-lysine]	114
CC(C)CN([C@@H](CCCCNC(=O)[C@H](Cc1ccccc1)NS(=O)(=O)c1cccs1)C(=O)NN)S(=O)(=O)c1ccc(N)cc1 [Example 49, Nα-(4-Aminobenzenesulfonyl)-Nα-isobutyl-Nε-[N′α-(2-thiophenesulfonyl)-L-phenylalanyl]-L-lysine Hydrazide]	17
Cc1ccc(S(=O)(=O)N(CC(C)C)[C@@H](CCCCNC(=O)[C@H](Cc2ccccc2)NC(=O)c2ccccc2)C(=O)O)cc1 [Example 50, Nα-Isobutyl-Nα-(4-methylbenzenesulfonyl)-Nε-(N′α-benzoyl-L-phenylalanyl)-L-lysine]	2
Cc1ccc(S(=O)(=O)N(CC(C)C)[C@@H](CCCCNC(=O)[C@H](Cc2ccccc2)NC(=O)N2CCOCC2)C(=O)O)cc1 [Example 51, Nα-Isobutyl-Nα-(4-methylbenzenesulfonyl)-Nε-[N′α-(4-morpholinecarbonyl)-L-phenylalanyl]-L-lysine]	0.9
Cc1ccc(S(=O)(=O)N(CC(C)C)[C@@H](CCCCNC(=O)[C@H](Cc2ccccc2)NC(=O)C(C)(C)C)C(=O)O)cc1 [Example 52, Nα-Isobutyl-Nα-(4-methylbenzenesulfonyl)-Nε-(N′α-pivaloyl-L-phenylalanyl)-L-lysine]	0.545
Cc1ccc(S(=O)(=O)N(CC(C)C)[C@@H](CCCCNC(=O)[C@H](Cc2c[nH]c3ccccc23)NS(=O)(=O)c2cccs2)C(=O)O)cc1 [Example 53, Nα-Isobutyl-Nα-(4-methylbenzenesulfonyl)-Nε-[N′α-(2-thiophenesulfonyl)-L-tryptophanyl]-L-lysine]	13
Cc1ccc(S(=O)(=O)N[C@@H](Cc2ccccc2)C(=O)NCCCC[C@@H](C(=O)O)N(CC(C)C)S(=O)(=O)c2cccs2)cc1 [Example 54, Nα-Isobutyl-Nα-(2-thiophenesulfonyl)-Nε-[N′α-(4-methylbenzenesulfonyl)-L-phenylalanyl]-L-lysine]	17

same assay, conditions: Anti-protease activity of Ne-amino acid substituted L-lysine derivatives and analogs of formula I; read-out: Ki

Compound	Ki [nM]
Cc1ccc(S(=O)(=O)N[C@@H](Cc2ccc([N+](=O)[O-])cc2)C(=O)NCCCC[C@@H](C(=O)O)N(CC(C)C)S(=O)(=O)c2ccc(C)cc2)cc1 [Example 26, Nα-Isobutyl-Nα-(4-methylbenzenesulfonyl)-Nε-[N′α-(4-methylbenzenesulfonyl)-L-4-nitrophenylalanyl]-L-lysine]	2.6
Cc1ccc(S(=O)(=O)N(CC(C)C)[C@@H](CCCCNC(=O)[C@H](CO)NC(=O)OCC2c3ccccc3-c3ccccc32)C(=O)O)cc1 [Example 36, Nα-Isobutyl-Nα-(4-methylbenzenesulfonyl)-Nε-[N′α-(9-fluorenylmethoxycarbonyl)-L-seryl]-L-lysine]	162

Source: patent US6610689B2, “HIV protease inhibitors based on amino acid derivatives” (priority 2001, dated 2003)
